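Assay format: 96-well plates, 48-hour exposure. GI50 marks 50% less growth. TGI denotes the concentration required for complete inhibition of growth.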
Experiments:
Test in all cases: NCI anticancer screen, dose series, 48 h
[1] = test system: BT-549 breast
[2] = test system: RPMI-8226 leukemia
[3] = test system: HS 578T breast
[4] = test system: SW-620 colon
[5] = test system: MDA-MB-435
[6] = test system: SF-539 CNS
[7] = test system: MOLT-4 leukemia
[8] = test system: NCI-H226 lung

SMILES | GI50 [1] | TGI [1] | GI50 [2] | TGI [2] | GI50 [3] | TGI [3] | GI50 [4] | TGI [4] | GI50 [5] | TGI [5] | GI50 [6] | TGI [6] | GI50 [7] | TGI [7] | GI50 [8] | TGI [8]
O=C(Nc1ccc(N2CCNCC2)cn1)c1[nH]ncc1Nc1ncnc2sccc12 | 1.83 µM | 4.13 µM | 2.32 µM | 6.71 µM | 2.86 µM | 14.2 µM | 1.54 µM | 3.19 µM | 1.59 µM | 3.12 µM | 1.69 µM | 3.39 µM | 1.99 µM | 7.64 µM | 2.62 µM | 9.05 µM
C[C@@]1(O)CCC[C@H]1n1c(=O)c(C(F)F)cc2cnc(NC3CCN(S(C)(=O)=O)CC3)nc21 | 1.94 µM | 9.39 µM | 1.11 µM | 8.64 µM | 1.48 µM | 7.28 µM | 0.0891 µM | 6.46 µM | 1.4 µM | 9.01 µM | 1.17 µM | 3.45 µM |  |  |  | 
CC(C)C1=CC23CCC4C(C)(C(=O)O)CCCC4(C)C2CC1C1C(=O)N(c2cccc(N4C(=O)C5C6CC7C8(C)CCCC(C)(C(=O)O)C8CCC7(C=C6C(C)C)C5C4=O)c2)C(=O)C13 (stereo not given) |  |  |  |  |  | 24.6 µM |  | 31.4 µM |  | 15.2 µM |  | 57.7 µM |  | 40.1 µM |  | 32.5 µM
COc1ccccc1N1CCN(CCCOc2ccc(C(=O)/C=C3/C(=O)Nc4ccccc43)cc2)CC1 | 4.42 µM | 16.1 µM | 2.6 µM | 28.6 µM | 22.5 µM | > 52.7 µM | 12.6 µM | 25.5 µM | 13.6 µM | 52.3 µM | 15.8 µM | 40.4 µM | 1.69 µM | 17.5 µM | 14.3 µM | 65.7 µM
O=C(Nc1ccc(-n2ccc3c(NC(=O)c4ccccc4)nccc32)cc1)c1ccc(N2CCOCC2)c(C(F)(F)F)c1 | 4.73 µM | > 67.9 µM | 0.0912 µM | > 100 µM | 1.81 µM | > 76.5 µM | 0.0697 µM | > 100 µM | 0.102 µM | 41.8 µM | 0.0513 µM | 6.79 µM | 0.0421 µM | > 100 µM | 3.18 µM | 59.4 µM
O=c1c(-c2nc3ccccc3[nH]2)cc2ccccc2n1Cc1cn(Cc2ccccc2Cl)nn1 |  |  | 3.02 µM | 10.8 µM | 1.93 µM | 5.91 µM | 2.87 µM | 10.4 µM | 1.9 µM | 3.93 µM | 1.78 µM | 3.66 µM | 2.36 µM | > 100 µM | 2.3 µM | 6.99 µM
NC(Cc1c[nH]c2cc(F)ccc12)C(=O)O (stereo not given) | 841 µM | > 2500 µM | > 2500 µM | > 2500 µM | 1780 µM | > 2500 µM | 1480 µM | > 2500 µM | 840 µM | > 2500 µM | 890 µM | > 2500 µM | 1340 µM | > 2500 µM | 2480 µM | > 2500 µM
C[C@@H]1OC(=O)NN=C1c1ccc(-c2ccc(F)cc2)c(C(F)(F)F)c1 | 7.3 µM | 21.2 µM | 5.78 µM | 51.2 µM |  | 3.37 µM | 10.2 µM | 25.3 µM | 3.57 µM | 13.9 µM | 11.2 µM | 24.3 µM | 5.27 µM | 33.4 µM | 2.57 µM | 20.6 µM
Cc1ccc(-n2c3c(c4c(CN)c(O)ccc42)CCc2ccccc2C3=O)cc1 | 10.7 µM | 31.8 µM | 4.31 µM | 23.1 µM | 0.456 µM | 5.03 µM | 2.48 µM | 8.19 µM | 3 µM | 8.87 µM | 16.6 µM | 36.1 µM | 2.33 µM | 6.51 µM | 18.2 µM | 36.6 µM
CC(=Nc1ccccc1)C1=C(O)C(Cc2ccc(F)cc2)NC1=O (stereo not given) | 0.879 µM | > 100 µM | 0.859 µM | > 100 µM | 2.44 µM | > 100 µM | 0.432 µM | > 100 µM | 0.16 µM | 0.449 µM | 1.36 µM | 12.1 µM | 3.18 µM | > 100 µM | 39.5 µM | > 100 µM
COc1ccc(C[C@H]2NC[C@H](O)[C@H]2OC(C)=O)cc1 |  | 1.91 µM |  | 0.332 µM |  | 0.0604 µM |  | 0.15 µM |  | 0.193 µM |  | 0.14 µM |  | 0.0642 µM |  | 0.242 µM
COc1cc2c(cc1OC)-c1ncc3cc(OC)c(OC)c(OC)c3c1C2 | 2.94 µM | 7.56 µM | 3.4 µM | 23.1 µM | 4.11 µM | 27.2 µM | 38.7 µM | > 100 µM | 16.2 µM | 42.6 µM | 14 µM | 34 µM |  |  |  | 
CNC(=S)N(C1CCCCC1)C1CCCCC1 |  |  |  | > 100 µM |  | 98.8 µM |  | > 100 µM |  | > 100 µM |  | > 100 µM |  | > 100 µM |  | > 100 µM
CCN(CC)CCOc1ccc(Cc2ccccc2)cc1 | 31.4 µM | > 100 µM | 20.7 µM | 76.1 µM | 13.6 µM | 52.4 µM | 17.4 µM | 42.4 µM | 18.5 µM | 44.2 µM | 32.1 µM | > 100 µM |  |  | 69.7 µM | > 100 µM
COc1ccc(C(=O)c2cc(C)c(OC)c(C)c2)c(OC)c1N(C(=O)CCl)C(=O)CCl | 0.0554 µM | 1.43 µM | 0.118 µM | 15.1 µM | 0.0333 µM | > 100 µM | 0.0432 µM | 19.3 µM |  |  | 0.0302 µM | 0.141 µM | 0.172 µM | 24.2 µM | 0.0562 µM | 4.22 µM
C[C@H](C(O)CC(=O)C(C)(C)O)[C@H]1CC[C@@]2(C)[C@@H]3CC[C@H]4C(C)(C)[C@@H](OC5OC(COC6OC(CO)C(O)C(O)C6O)C(O)C(O)C5O)CC[C@]4(C)C3=CC[C@]12C (stereo not given in full) |  | > 100 µM |  | > 100 µM |  | > 100 µM |  | > 100 µM |  | > 100 µM |  | > 100 µM |  |  |  | > 100 µM

— PubChem BioAssay (NCI)
